Earlier results, collected in patent US4168274A, “Production of a peracid and an oxirane” (priority 1975, dated 1979).

Conditions: Table I, carboxylic acids and solvents, symbols .infin., v, s, δ

| solubility in water | SMILES |
| --- | --- |
| δ | CCCCCC(=O)O [caproic] |
| δ | CCCl [chloroethane] |
| δ | CCCOCCC [di n-propyl ether] |
| δ | CCOC(=O)CC [ethyl propionate] |
| δ | CCCCCCC(=O)O [n.heptoic] |

| SMILES | solubility in water |
| --- | --- |
| O=[N+]([O-])c1ccccc1 [nitrobenzene] | δ |
| CC(Cl)CCl (centres unmarked) [propylene dichloride] | δ |
| ClC(Cl)C(Cl)Cl [tetrachloroethane] | δ |
